Like-named read-outs stand apart in the source and are kept apart here. Numbered stars: 1 amine (or outer) side, 2 acyl side, 3 side chain; on linkers, the order of the positions; unused ones are H or OH. Bridge positions count the residues as written; N and C are the ends. Side chains are listed from the residue outwards. Peptide text beside a SMILES is read from it. * marks the point of attachment. C20 diacid = O=C(O)CCCCCCCCCCCCCCCCCCC(=O)*; γGlu = O=C(O)[C@H](CCC(=O)[*:2])N[*:1]
Legend:
[1] = target: T1, human calcitonin receptor (Homo sapiens, UniProt P30988); assay: Assay (VII) binding to the human calcitonin receptor (SPA, 125I-Calcitonin); conditions: read-out: hCTR bind IC50;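 also: cell membranes coupled to SPA beads, competitive displacement read by scintillation counting, IC50 derived from a one-site competition fit as a measure of receptor affinity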
T1 construct: expressed in transfected cells
T1 sequence (P30988 25-474): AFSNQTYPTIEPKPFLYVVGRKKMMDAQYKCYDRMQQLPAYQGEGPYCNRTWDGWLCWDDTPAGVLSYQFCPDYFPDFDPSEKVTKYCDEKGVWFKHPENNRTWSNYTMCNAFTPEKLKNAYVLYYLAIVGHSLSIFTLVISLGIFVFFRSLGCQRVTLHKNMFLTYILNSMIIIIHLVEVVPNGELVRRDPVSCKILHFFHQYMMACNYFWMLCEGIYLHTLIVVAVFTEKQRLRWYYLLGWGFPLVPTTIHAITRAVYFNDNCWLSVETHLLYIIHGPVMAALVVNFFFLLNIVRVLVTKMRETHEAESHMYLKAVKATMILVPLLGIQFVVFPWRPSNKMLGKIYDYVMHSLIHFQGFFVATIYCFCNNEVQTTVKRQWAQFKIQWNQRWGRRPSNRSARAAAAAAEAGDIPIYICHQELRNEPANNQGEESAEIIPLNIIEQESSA

[2] = target: T2, human amylin receptor (Homo sapiens, UniProt O60896+P30988); assay: Assay (V) binding to the human amylin receptor (SPA, 125I-rat amylin); conditions: for IC50: read-out: hAmylin-R bind IC50; for Ratio hCT/hAmylin binding: human binding ratio, included for comparison
T2 construct: expressed in transfected cells
T2 sequence (P30988 25-474): T1 sequence (P30988 25-474)
T2 sequence (O60896 24-148 partner): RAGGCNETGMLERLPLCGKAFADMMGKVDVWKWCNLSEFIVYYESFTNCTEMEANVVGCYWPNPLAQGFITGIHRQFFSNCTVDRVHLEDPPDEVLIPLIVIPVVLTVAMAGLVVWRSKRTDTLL
Outline: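 SPA competition binding on membranes from Amylin 3(a)/CRE-luc cells, 35 ng/μL membranes with 0.05 mg/well beads. Buffer 50 mM Hepes pH 7.4, 1 mM CaCl2, 5 mM MgCl2, 0.1% OA, 0.02% Tween20. IC50 from one-site competition fit as affinity measure.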

[3] = target: T3, rat amylin receptor (Rattus norvegicus, UniProt P32214+Q9JJ73); assay: Assay (VI) binding to the rat amylin receptor; conditions: rCTR bind IC50 divided by rAmylin-R bind IC50
T3 construct: expressed in transfected cells; host or cells: BHK tk'ts 13 (transient, FuGENE 6), membranes
T3 sequence (P32214 25-479 isoform P32214-2 limits assumed): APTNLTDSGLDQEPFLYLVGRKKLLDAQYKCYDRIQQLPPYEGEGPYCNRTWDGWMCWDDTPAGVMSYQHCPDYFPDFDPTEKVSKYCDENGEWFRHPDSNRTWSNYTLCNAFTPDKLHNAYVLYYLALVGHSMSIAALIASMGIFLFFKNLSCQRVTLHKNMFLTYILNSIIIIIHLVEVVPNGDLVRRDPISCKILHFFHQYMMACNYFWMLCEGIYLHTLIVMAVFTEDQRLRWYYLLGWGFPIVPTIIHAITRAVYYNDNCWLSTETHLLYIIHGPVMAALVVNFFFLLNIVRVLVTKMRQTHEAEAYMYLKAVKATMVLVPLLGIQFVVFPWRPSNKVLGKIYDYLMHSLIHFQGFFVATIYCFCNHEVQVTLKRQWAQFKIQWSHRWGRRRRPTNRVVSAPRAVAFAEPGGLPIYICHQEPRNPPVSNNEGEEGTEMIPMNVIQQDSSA
T3 sequence (Q9JJ73 23-147 partner): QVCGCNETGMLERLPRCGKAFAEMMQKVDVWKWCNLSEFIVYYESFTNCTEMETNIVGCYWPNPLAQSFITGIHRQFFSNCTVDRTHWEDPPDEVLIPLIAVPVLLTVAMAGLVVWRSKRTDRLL
Experimental: Assay (VI)—Determination of the Binding to the Rat Amylin Receptor
The assay was performed as described above (Assay (V)—Determination of binding to the human amylin receptor) with the exception that we used membranes prepared from BHK tk'ts 13 cells that were transiently transfected with the rat calcitonin receptor rat RAMP 3 at an equimolar ratio […]. The BHK tk'ts 13 cells were transiently transfected with rat calcitonin receptor using FuGENE® 6 (Roche), according to the manufacturer's recommendations. Cells were grown in DMEM with 10% FBS and 1% Pen/Strep. Approximately 48 hours after transfection, the cells were harvested and membranes were prepared.

[4] = target: T1, human calcitonin receptor; assay: Assay (II)a functional assay, human calcitonin receptor (CRE luciferase, BHK cells);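 also: luminescence from a CRE-driven luciferase reporter, read by single photon counting after cells were exposed to test samples for 3 h at 37 °C under 5% CO2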; assay type: cell-based; conditions: read-out: hCTR funct. EC50
[5] = target: T4, human amylin receptor (amylin 3(a) receptor: human calcitonin receptor + RAMP-3) (Homo sapiens, UniProt O60896+P30988); assay: Assay (II)a functional assay, human amylin receptor (CRE luciferase, BHK cells); assay type: cell-based; conditions: for EC50: read-out: hAmylin-R funct. EC50
T4 construct: expressed in transfected cells
T4 sequence (P30988 25-474): T1 sequence (P30988 25-474)
T4 sequence (O60896 24-148 partner): T2 sequence (O60896 24-148 partner)
Experimental: Assay (II)—Functional Assays
Consequently, transcription is activated by promoters containing multiple copies of the cAMP response element (CRE).
The cell line was further transfected with RAMP-3, using standard methods.
After incubation overnight at 37° C. and 5% CO2, the growth medium was replaced by 50 μl/well assay medium (DMEM (without phenol red), Glutamax™, 10% FBS, and 10 mM Hepes, pH 7.4). Further, 50 μl/well of standard or sample in assay buffer were added. After 3 hours incubation at 37° C. and 5% CO2, the assay medium with standard or sample were removed and replaced by 100 μl/well PBS. Further, 100 μl/well LucLite™ was added. The plates were sealed and incubated at room temperature for 30 minutes. Finally, luminescence was measured on a TopCounter (Packard) in SPC (single photon counting) mode.

[6] = human amylin receptor membranes, SPA
[7] = Table 6, human functional selectivity (hCTR EC50 / hAmylin-R EC50)
[8] = functional assay, human amylin receptor
[9] = Table 6a, human functional selectivity (hCTR EC50 / hAmylin-R EC50), at least 5
[10] = Table 6j, hCTR funct. EC50 / hAmylin-R funct. EC50
[11] = Table 6k, hCTR funct. EC50 / hAmylin-R funct. EC50

Row | Structure (SMILES) | IC50 [1] [nM] | IC50 ([2]; binding to human amylin receptor) [nM] | IC50 [2, 6] [nM] | Ratio hCT/hAmylin binding [2] | Ratio rCT/rAmylin binding [3] | EC50 [4] [nM] | Ratio hCT/hAmylin funct. [5, 7] | EC50 [5, 8] [nM] | Ratio hCT/hAmylin funct. ([5]; hCTR funct. EC50 divided by hAmylin-R funct. EC50) | Ratio rCT/rAmylin binding ([3]; Table 7b) | Ratio hCT/hAmylin funct. [5, 9] | Ratio hCT/hAmylin funct. [5, 10] | Ratio hCT/hAmylin funct. [5, 11] | Ratio hCT/hAmylin funct. ([5]; Table 6i, hCTR funct. EC50 / hAmylin-R funct. EC50) | EC50 ([5]; Table 6i, human amylin receptor functional) [nM]
1 | CC(C)C[C@H](NC(=O)[C@H](CCCNC(=N)N)NC(=O)[C@H](CCC(N)=O)NC(=O)[C@@H](NC(=O)[C@H](C)NC(=O)[C@@H]1CSSC[C@H](NC(=O)[C@H](CCCCN)NC(=O)CC[C@H](NC(=O)CCCCCCCCCCCCCCCCCCC(=O)O)C(=O)O)C(=O)N[C@@H](CC(N)=O)C(=O)N[C@@H]([C@@H](C)O)C(=O)N[C@@H](C)C(=O)N[C@@H]([C@@H](C)O)C(=O)N1)[C@@H](C)O)C(=O)N[C@@H](C)C(=O)N[C@@H](CCC(=O)O)C(=O)N[C@@H](Cc1ccccc1)C(=O)N[C@@H](CC(C)C)C(=O)N[C@@H](CCCNC(=N)N)C(=O)N[C@@H](Cc1c[nH]cn1)C(=O)N[C@@H](CO)C(=O)N[C@@H](CO)C(=O)N1CCC[C@H]1C(=O)N[C@@H](CC(N)=O)C(=O)N[C@@H](Cc1ccccc1)C(=O)NCC(=O)N[C@@H](C)C(=O)N1CCC[C@H]1C(=O)N[C@@H](CC(C)C)C(=O)N[C@@H](CO)C(=O)N[C@@H](CO)C(=O)N[C@H](C(=O)N[C@@H](CC(N)=O)C(=O)N[C@H](C(=O)NCC(=O)N[C@@H](CO)C(=O)N[C@@H](CC(N)=O)C(=O)N[C@H](C(=O)N1CCC[C@H]1C(N)=O)[C@@H](C)O)C(C)C)[C@@H](C)O [Example 5] ({C20 diacid-γGlu}-KCNTATCATQRLAEFLRHSSPNFGAPLSSTNVGSNTP-NH2; disulfide 2-7) | 0.537 | 0.374 | 0.374 | 1.4 | 3.6 | 0.16 | 1.0 | 0.162 | 1.0 |  |  |  |  |  | 
2 | CC[C@H](C)[C@H](NC(=O)[C@H](C)NC(=O)CNC(=O)[C@H](Cc1ccccc1)NC(=O)[C@H](CC(N)=O)NC(=O)[C@@H]1CCCN1C(=O)[C@H](CO)NC(=O)[C@H](CO)NC(=O)[C@H](Cc1c[nH]cn1)NC(=O)[C@H](CCCNC(=N)N)NC(=O)[C@H](CC(C)C)NC(=O)[C@H](Cc1ccccc1)NC(=O)[C@H](CCC(=O)O)NC(=O)[C@H](C)NC(=O)[C@H](CC(C)C)NC(=O)[C@H](CCCNC(=N)N)NC(=O)[C@H](CCC(N)=O)NC(=O)[C@@H](NC(=O)[C@H](C)NC(=O)[C@@H]1CSSC[C@H](NC(=O)[C@@H](N)CCCCNC(=O)CC[C@H](NC(=O)CCCCCCCCCCCCCCCCCCC(=O)O)C(=O)O)C(=O)N[C@@H](CC(N)=O)C(=O)N[C@@H]([C@@H](C)O)C(=O)N[C@@H](C)C(=O)N[C@@H]([C@@H](C)O)C(=O)N1)[C@@H](C)O)C(=O)N1CCC[C@H]1C(=O)N[C@@H](CO)C(=O)N[C@@H](CO)C(=O)N[C@H](C(=O)N[C@@H](CC(N)=O)C(=O)N[C@H](C(=O)NCC(=O)N[C@@H](CO)C(=O)N[C@@H](CC(N)=O)C(=O)N[C@H](C(=O)N1CCC[C@H]1C(N)=O)[C@@H](C)O)C(C)C)[C@@H](C)O [Example 12] (H-K([γGlu-C20 diacid])CNTATCATQRLAEFLRHSSPNFGAIPSSTNVGSNTP-NH2; disulfide 2-7) | 0.353 |  | 0.142 | 2.5 | 5.0 | 0.185 | 1.8 | 0.101 |  |  |  |  |  |  | 
3 | CC[C@H](C)[C@H](NC(=O)[C@H](C)NC(=O)CNC(=O)[C@H](Cc1ccccc1)NC(=O)[C@H](CC(N)=O)NC(=O)[C@@H]1CCCN1C(=O)[C@H](CO)NC(=O)[C@H](CO)NC(=O)[C@H](Cc1c[nH]cn1)NC(=O)[C@H](CCCNC(=N)N)NC(=O)[C@H](CC(C)C)NC(=O)[C@H](Cc1ccccc1)NC(=O)[C@H](CC(N)=O)NC(=O)[C@H](C)NC(=O)[C@H](CC(C)C)NC(=O)[C@H](CCCNC(=N)N)NC(=O)[C@H](CCC(N)=O)NC(=O)[C@@H](NC(=O)[C@H](C)NC(=O)[C@@H]1CSSC[C@H](NC(=O)[C@H](CCCCN)NC(=O)CC[C@H](NC(=O)CCCCCCCCCCCCCCCCCCC(=O)O)C(=O)O)C(=O)N[C@@H](CC(N)=O)C(=O)N[C@@H]([C@@H](C)O)C(=O)N[C@@H](C)C(=O)N[C@@H]([C@@H](C)O)C(=O)N1)[C@@H](C)O)C(=O)N1CCC[C@H]1C(=O)N[C@@H](CO)C(=O)N[C@@H](CO)C(=O)N[C@H](C(=O)N[C@@H](CC(N)=O)C(=O)N[C@H](C(=O)NCC(=O)N1CCC[C@H]1C(=O)N[C@@H](CCC(=O)O)C(=O)N[C@H](C(=O)N[C@@H](Cc1ccc(O)cc1)C(N)=O)[C@@H](C)O)C(C)C)[C@@H](C)O [Example 29] ({C20 diacid-γGlu}-KCNTATCATQRLANFLRHSSPNFGAIPSSTNVGPETY-NH2; disulfide 2-7) | 8.01 |  | 0.577 |  | 67.0 | 0.857 | 8.7 | 0.099 |  | 67.0 | 8.7 | 8.7 | 8.7 |  | 
4 | CC[C@H](C)[C@H](NC(=O)[C@H](C)NC(=O)CNC(=O)[C@H](Cc1ccccc1)NC(=O)[C@H](CC(N)=O)NC(=O)[C@@H]1CCCN1C(=O)[C@H](CO)NC(=O)[C@H](CO)NC(=O)[C@H](Cc1c[nH]cn1)NC(=O)[C@H](CCCNC(=N)N)NC(=O)[C@H](CC(C)C)NC(=O)[C@H](Cc1ccccc1)NC(=O)[C@H](CCC(=O)O)NC(=O)[C@H](C)NC(=O)[C@H](CC(C)C)NC(=O)[C@H](CCCNC(=N)N)NC(=O)[C@H](CCC(N)=O)NC(=O)[C@@H](NC(=O)[C@H](C)NC(=O)[C@@H]1CSSC[C@H](NC(=O)[C@H](CCCCN)NC(=O)CC[C@H](NC(=O)CCCCCCCCCCCCCCCCCCC(=O)O)C(=O)O)C(=O)N[C@@H](CC(N)=O)C(=O)N[C@@H]([C@@H](C)O)C(=O)N[C@@H](C)C(=O)N[C@@H]([C@@H](C)O)C(=O)N1)[C@@H](C)O)C(=O)N1CCC[C@H]1C(=O)N[C@@H](CO)C(=O)N[C@@H](CO)C(=O)N[C@H](C(=O)N[C@@H](CC(N)=O)C(=O)N[C@H](C(=O)NCC(=O)N1CCC[C@H]1C(=O)N[C@@H](CC(N)=O)C(=O)N[C@H](C(=O)N[C@@H](Cc1ccc(O)cc1)C(N)=O)[C@@H](C)O)C(C)C)[C@@H](C)O [Example 32] ({C20 diacid-γGlu}-KCNTATCATQRLAEFLRHSSPNFGAIPSSTNVGPNTY-NH2; disulfide 2-7) | 1.09 |  | 0.1 |  | 34.0 | 0.327 | 6.6 |  |  | 34.0 | 6.6 | 6.6 | 6.6 | 6.6 | 0.05

Source: US8575091B1, “Amylin analogues and pharmaceutical compositions thereof” (Novo Nordisk A/S, priority 2012, dated 2013)
